Assay results from ChEMBL document CHEMBL1275247, “Pharmacokinetics and safety of CXA-101, a new antipseudomonal cephalosporin, in healthy adult male and female subjects receiving single- and multiple-dose intravenous infusions” (Antimicrob Agents Chemother, 2010).

Experiments:
[1] = Volume of distribution at steady state in healthy human at 1500 mg, iv administered as 1 hr infusion every 12 hrs for 10 days measured on day 1; type: ADME, organism-based; conditions: in vivo
[2] = Tmax in healthy human at 500 mg, iv administered as 1 hr infusion every 8 hrs for 10 days measured on day 10; type: ADME, organism-based; conditions: in vivo
[3] = Drug recovery in urine of healthy human at 500 mg, iv administered as single dose as 1 hr iv infusion after 24 hrs; type: ADME, organism-based; conditions: read-out: Activity
[4] = Drug recovery in urine of healthy human at 1500 mg, iv administered as 1 hr infusion every 12 hrs for 10 days measured on day 10; type: ADME, organism-based; conditions: read-out: Activity
[5] = Tmax in healthy human at 1500 mg, iv administered as single dose as 1 hr iv infusion; type: ADME, organism-based; conditions: in vivo
[6] = AUC (0 to infinity) in healthy human at 500 mg, iv administered as 1 hr infusion every 8 hrs for 10 days measured on day 1; type: ADME, organism-based; set-up: dose 500 mg, route intravenous, time infinity; conditions: plasma
[7] = Tmax in healthy human at 1500 mg, iv administered as 1 hr infusion every 12 hrs for 10 days measured on day 10; type: ADME, organism-based; conditions: in vivo
[8] = Tmax in healthy human at 500 mg, iv administered as single dose as 1 hr iv infusion; type: ADME, organism-based; conditions: in vivo
[9] = Cmax in healthy human at 250 mg, iv administered as single dose as 1 hr iv infusion; type: ADME, organism-based; set-up: dose 250 mg, route intravenous; conditions: in vivo
[10] = Volume of distribution at steady state in healthy human at 1500 mg, iv administered as 1 hr infusion every 12 hrs for 10 days measured on day 10; type: ADME, organism-based; conditions: in vivo
[11] = Half-life in plasma of healthy human 1000 mg administered as single ascending dose, iv for 1 hr infusion; type: ADME, organism-based
Homo sapiens = experiment: Toxicity in healthy human assessed as occurrence of nausea at 1000 mg, iv administered as single dose as 1 hr iv infusion; type: organism-based; conditions: in vivo
[12] = Clearance in healthy human at 500 mg, iv administered as single dose as 1 hr iv infusion; type: ADME, organism-based; conditions: in vivo
[13] = Drug recovery in urine of healthy human at 250 mg, iv administered as single dose as 1 hr iv infusion after 24 hrs; type: ADME, organism-based; conditions: read-out: Activity
[14] = Mean residence time in healthy human at 1000 mg, iv administered as 1 hr infusion every 8 hrs for 10 days measured on day 10; type: ADME, organism-based; conditions: in vivo

`Cn1c(N)c(NC(=O)NCCN)c[n+]1CC1=C(C(=O)O)N2C(=O)[C@@H](NC(=O)/C(=N\OC(C)(C)C(=O)[O-])c3nsc(N)n3)[C@H]2SC1` [CEFTOLOZANE] showed a Vd [1] of 18.1 L, a Tmax [2] of 0.93 h and a dose excreted at 24 h [3] of 91.2%. The dose excreted at 10 day [4] was 105%, the Tmax [5] was 1.03 h and the AUC(0-inf) [6] was 88100 ng·h/mL. For the same compound, the Tmax [7] was 1 h, the Tmax [8] was 1.03 h and the Cmax [9] was 16500 ng/mL. For the same compound, the Vd [10] was 18.1 L, the half-life [11] was 2.25 h and the Activity (Homo sapiens) was “Non-toxic”. It also gave a clearance [12] of 99.1 mL/min, a dose excreted at 24 h [13] of 97.1% and an MRT [14] of 2.45 h.
